Experimental data: patent publication US7772216B2, “Protein kinase and phosphatase inhibitors and methods for designing them” (The Research Foundation of State University of New York, priority 2001, dated 2010)
Where two headings read alike, the source gives them in different places. Blank lines part the entries; values can stand above or below the molecule they belong to. Starred links: 1 amine or outer side, 2 acyl side, 3 side chain; linkers in the order of their positions; H or OH if unused. Non-standard residues stand in square brackets, D forms with d. Residues, ends and D or L forms follow the SMILES beside them. X4 = O=C([C@H](CCCB(O)O)N[*:1])[*:2]

What was measured:
pp60^c-src = pp60^c-src (Homo sapiens, UniProt P12931); assay: Cellular Mimetic Src assay (RR-SRC phosphorylation); conditions: for inhibition at 500 µM: read-out: % Inhibition of 2 mM RR-src at Inhibitor Concentration (500 μM); for inhibition at 45 µM: inhibitor at 45 μM
PKA [1] = molecular target: T1, PKA (Homo sapiens, UniProt P17612); assay: Literature Mimetic PKA assay; format: biochemical; conditions: 1000 μM inhibitor, L
From the text: (§1) The boronic acid inhibitors 21-24 have two Arg's in their sequence also and therefore will bind to the phosphocellulose paper in addition to Kemptamide (although not as consistently or completely due to one less positive charge). Consequently, when analyzed as inhibitors, the amount of phosphorylated Kemptamide produced was not only counted, but also the amount of phosphorylated inhibitor simultaneously produced (e.g. see 26 below). The net result is that distorted IC50 curves are obtained which show net “stimulation” at higher inhibitor concentrations in some cases. […] The underlying substrate behavior of these “inhibitors” makes an accurate measurement of their inhibition potency impossible with the current assay. However, it does appear from the data that homologating the boronic acid functionality out with only CH2 groups (homologations with boronic acid non-peptide Src inhibitors may also be carried out) decreases the binding affinity and ability to function as a substrate.

PKA [2] = molecular target: T1, PKA; assay: Cellular Mimetic PKA assay; format: biochemical
From the text: as §1
Phosphorylated Kemptamide is SEQ. ID. No. 6. Phosphorylated 22 is SEQ. ID. No. 4. […] The graphs show their respective rates and levels of phosphorylation with the typical loss of initial velocity kinetics with time (due to substrate depletion and end product inhibition), analogous to a standard L-Ser substrate such as Kemptamide. The comparison of 21 to 22 shown was done in the same assay run, at identical boronic acid substrate concentrations, and with identical Cellular Mimetic assay solutions so that the cpm's could be directly compared. […] That the boronic acid moiety would be phosphorylated by PKA was surprising, but it is even more surprising that the phosphonic-boronic acid mixed anhydride produced (e.g. 26) was stable enough to survive the pH 7.2/37° C. assay incubation and then be isolated by binding to phosphocellulose paper after acid quenching of the reaction with 10% TCA and washing the phosphocellulose paper with 25 mM phosphoric acid (3×). An STN substructure search was run on mixed anhydrides of phosphoric and boronic acids and found only three references to experiments and theoretical calculations for the analogous putative (but not proven) anhydride formed from boric acid and phosphoric acid as a solid surface impregnated catalyst for the partial oxidation of ethane to acetaldehyde at 823° K. (Zhanpeisov & Otsuka, 1992, Otsuka et al., 1992, Murakami et al., 1990). However, this highly unusual anhydride has never before been synthesized free of a solid surface, isolated, or characterized. Thus, this is a novel enzymatic reaction and chemical entity with interesting possibilities for protein kinase inhibitor designs.

EGFRTK = EGFRTK (Homo sapiens, UniProt P00533); assay: EGFRTK inhibition; format: biochemical; conditions: % inhibition at 10 micromolar compound
From the text: (§2) Blanks for a particular enzyme indicate that inhibition was not found.

PTP-1B = molecular target: T2, PTP-1B (Homo sapiens, UniProt P18031); assay: PTP-1B inhibition; format: biochemical; conditions: % inhibition at 10 micromolar compound
T2 sequence (P18031 1-435): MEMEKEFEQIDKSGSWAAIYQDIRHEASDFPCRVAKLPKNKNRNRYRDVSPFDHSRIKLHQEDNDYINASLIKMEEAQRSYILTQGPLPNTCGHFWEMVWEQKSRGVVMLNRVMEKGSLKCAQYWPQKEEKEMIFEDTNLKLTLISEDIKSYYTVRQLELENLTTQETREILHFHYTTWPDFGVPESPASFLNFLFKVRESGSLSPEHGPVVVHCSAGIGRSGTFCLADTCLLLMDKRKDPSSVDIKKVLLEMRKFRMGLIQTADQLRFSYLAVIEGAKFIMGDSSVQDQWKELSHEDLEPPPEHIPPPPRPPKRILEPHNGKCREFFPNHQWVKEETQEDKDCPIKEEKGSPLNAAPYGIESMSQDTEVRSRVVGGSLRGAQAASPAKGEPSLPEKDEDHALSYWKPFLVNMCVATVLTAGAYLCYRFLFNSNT
From the text: as §2

[3] = read-out: % Inhibition of 2 mM RR-src at Inhibitor Concentration (100 μM)

Sequence of pp60^c-src (P12931 whole entry): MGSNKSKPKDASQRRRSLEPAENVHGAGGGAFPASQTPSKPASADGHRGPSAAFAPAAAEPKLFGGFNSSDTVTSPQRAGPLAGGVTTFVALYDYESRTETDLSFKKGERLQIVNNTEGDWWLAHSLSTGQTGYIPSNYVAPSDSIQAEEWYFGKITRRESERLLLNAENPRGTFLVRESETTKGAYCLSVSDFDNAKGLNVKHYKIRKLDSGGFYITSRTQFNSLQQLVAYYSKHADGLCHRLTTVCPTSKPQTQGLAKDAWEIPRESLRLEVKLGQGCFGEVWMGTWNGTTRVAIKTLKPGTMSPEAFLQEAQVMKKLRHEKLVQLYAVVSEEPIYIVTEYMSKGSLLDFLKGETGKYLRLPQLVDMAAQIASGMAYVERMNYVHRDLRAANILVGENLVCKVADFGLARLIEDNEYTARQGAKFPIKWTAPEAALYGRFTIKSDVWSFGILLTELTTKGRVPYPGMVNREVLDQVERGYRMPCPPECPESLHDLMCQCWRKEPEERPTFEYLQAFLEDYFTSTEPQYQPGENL
Sequence of EGFRTK (P00533 25-1210): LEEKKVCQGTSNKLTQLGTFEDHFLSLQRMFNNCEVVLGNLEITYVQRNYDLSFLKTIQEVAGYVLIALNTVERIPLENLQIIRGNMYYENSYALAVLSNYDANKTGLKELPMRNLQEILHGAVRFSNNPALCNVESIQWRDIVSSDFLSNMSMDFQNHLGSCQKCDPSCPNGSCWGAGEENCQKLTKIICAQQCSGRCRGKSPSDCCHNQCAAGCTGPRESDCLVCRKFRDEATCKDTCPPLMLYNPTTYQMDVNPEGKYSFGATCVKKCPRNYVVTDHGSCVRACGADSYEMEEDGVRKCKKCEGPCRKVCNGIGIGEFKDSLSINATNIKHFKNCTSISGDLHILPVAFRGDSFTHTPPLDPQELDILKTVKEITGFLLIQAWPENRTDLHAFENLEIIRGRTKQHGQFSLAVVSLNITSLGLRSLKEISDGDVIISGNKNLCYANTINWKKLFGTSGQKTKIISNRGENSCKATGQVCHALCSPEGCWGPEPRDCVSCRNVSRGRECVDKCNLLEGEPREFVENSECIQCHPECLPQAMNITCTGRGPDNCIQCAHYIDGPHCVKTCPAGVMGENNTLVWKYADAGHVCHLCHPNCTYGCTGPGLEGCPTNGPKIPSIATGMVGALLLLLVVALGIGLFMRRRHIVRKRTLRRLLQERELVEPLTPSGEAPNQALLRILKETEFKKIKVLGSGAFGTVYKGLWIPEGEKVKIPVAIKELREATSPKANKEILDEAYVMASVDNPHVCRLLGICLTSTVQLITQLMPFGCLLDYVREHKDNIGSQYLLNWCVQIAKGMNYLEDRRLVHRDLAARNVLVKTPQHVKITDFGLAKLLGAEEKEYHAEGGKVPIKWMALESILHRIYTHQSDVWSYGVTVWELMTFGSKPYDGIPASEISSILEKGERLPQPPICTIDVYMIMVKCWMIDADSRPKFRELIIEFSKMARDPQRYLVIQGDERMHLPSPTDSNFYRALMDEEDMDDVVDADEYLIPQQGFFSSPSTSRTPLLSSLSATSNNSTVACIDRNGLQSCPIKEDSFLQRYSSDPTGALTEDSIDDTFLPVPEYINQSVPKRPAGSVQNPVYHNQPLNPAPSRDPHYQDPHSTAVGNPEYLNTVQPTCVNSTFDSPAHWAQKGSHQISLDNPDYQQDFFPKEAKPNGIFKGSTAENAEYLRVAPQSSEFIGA

inhibition at 500 µM (pp60^c-src): 13%
Compound: COC(=O)c1cc2ccc(B(O)O)cc2cn1

Compound: OB(O)c1ccc(-c2ccccc2)cc1
inhibition at 100 µM (pp60^c-src; [3]): 13%

inhibition at 100 µM (pp60^c-src; [3]): 14%
Compound: OB(O)c1cccc(-c2ccccc2)c1

inhibition at 100 µM (pp60^c-src; [3]): 47%
Compound: COC(=O)c1cc2ccc(O)cc2cc1O

inhibition at 100 µM (pp60^c-src; [3]): 45%
Compound: O=C(Nc1cccc(O)c1)c1ccc2cc(O)ccc2c1

inhibition at 500 µM (pp60^c-src): 40%
Compound: COC(=O)c1cc2cc(O)ccc2[nH]1

inhibition at 1000 µM (PKA [1]; 0 h preincubation): 33% | inhibition at 1000 µM (PKA [1]; 4 h preincubation): 44% | % sti (stimulation) (PKA [2]; 2000 μM inhibitor, C, 0 h preincubation): 2000 μM 6% sti | IC50 (PKA [2]; IC50 μM (cond. C, 4 h preincubation), Cellular Mimetic, 4 h preincubation): 1730 µM
Compound: CC[C@H](C)[C@H](NC(=O)[C@H](CCCB(O)O)NC(=O)CNC(=O)[C@H](CCCNC(=N)N)NC(=O)[C@H](CCCNC(=N)N)NC(C)=O)C(N)=O (Ac-RRG[X4]I-NH2)

inhibition at 45 µM (pp60^c-src; [ATP] 200 μM): 46% | inhibition at 45 µM (pp60^c-src; [ATP] 1,000 μM): 41% | inhibition at 100 µM (pp60^c-src; read-out: % Inhibition at 100 μM (std. dev.), Table X, hydroxyindole derivatives): 74%
Compound: O=C(NCc1cccc(O)c1)c1cc2cc(O)ccc2[nH]1 [Cmpd 2k]

EGFRTK @ 10 μm (EGFRTK): 12%
Compound: COc1cccc([C@H](C)NC(=O)c2cc3cc(F)ccc3[nH]2)c1 [Compound 1aa]

PTP-1B @ 10 μm (PTP-1B): 12%
Compound: O=C(NCc1cc(C(F)(F)F)ccc1F)c1cc2cc(F)ccc2[nH]1 [Compound 1aaa]

EGFRTK @ 10 μm (EGFRTK): 19%
Compound: O=C(NCc1ccccc1)c1cc2cc(F)ccc2[nH]1 [Compound 1bb]

EGFRTK @ 10 μm (EGFRTK): 19%
Compound: O=C(N[C@H](c1ccccc1)[C@H](O)c1ccccc1)c1cc2cc(F)ccc2[nH]1 [Compound 1cc]

EGFRTK @ 10 μm (EGFRTK): 41%
Compound: O=C(N[C@@H](c1ccccc1)[C@@H](O)c1ccccc1)c1cc2cc(F)ccc2[nH]1 [Compound 1dd]

PTP-1B @ 10 μm (PTP-1B): 16%
Compound: O=C(NCc1cc(O)cc(OCc2ccccc2)c1)c1cc2cc(F)ccc2[nH]1 [Compound 1dddd]

EGFRTK @ 10 μm (EGFRTK): 16%
Compound: COc1ccc(CNC(=O)c2cc3cc(F)ccc3[nH]2)cc1 [Compound 1ee]

EGFRTK @ 10 μm (EGFRTK): 24%
Compound: O=C(NCc1cccc(I)c1)c1cc2cc(F)ccc2[nH]1 [Compound 1ff]

EGFRTK @ 10 μm (EGFRTK): 12%
Compound: Cc1ccccc1CNC(=O)c1cc2cc(F)ccc2[nH]1 [Compound 1ffff]

EGFRTK @ 10 μm (EGFRTK): 25%
Compound: O=C(NCc1ccc(O)c(O)c1)c1cc2cc(F)ccc2[nH]1 [Compound 1gggg]

PTP-1B @ 10 μm (PTP-1B): 17%
Compound: COc1cc(CNC(=O)c2cc3cc(F)ccc3[nH]2)cc(OC)c1 [Compound 1hhhh]

EGFRTK @ 10 μm (EGFRTK): 12%
Compound: O=C(NCc1cc(OCc2ccccc2)cc(OCc2ccccc2)c1)c1cc2cc(F)ccc2[nH]1 [Compound 1iiii]

PTP-1B @ 10 μm (PTP-1B): 15%
Compound: O=C(NCc1ccc(OCc2ccccc2)c(O)c1)c1cc2cc(F)ccc2[nH]1 [Compound 1jjjj]
